For one series, the target named is T1, human AT1R (Homo sapiens, UniProt P30556).
T1 construct: host or cells: HEK-293
T1 sequence (P30556 1-359): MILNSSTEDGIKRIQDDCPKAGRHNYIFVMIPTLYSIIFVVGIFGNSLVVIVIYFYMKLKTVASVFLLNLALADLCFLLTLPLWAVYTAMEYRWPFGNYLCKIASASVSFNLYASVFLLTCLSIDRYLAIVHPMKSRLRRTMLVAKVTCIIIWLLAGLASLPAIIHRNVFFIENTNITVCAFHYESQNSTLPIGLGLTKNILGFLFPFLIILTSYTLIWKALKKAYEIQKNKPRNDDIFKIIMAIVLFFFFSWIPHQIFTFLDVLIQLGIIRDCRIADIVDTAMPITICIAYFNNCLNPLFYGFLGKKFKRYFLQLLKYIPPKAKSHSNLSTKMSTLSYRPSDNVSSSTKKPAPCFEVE
The format is binding. Conditions: HEK-293 cell membranes.

The next series addresses T2, human AT2R (Homo sapiens, UniProt P50052).
T2 construct: host or cells: HEK-293
T2 sequence (P50052 1-363): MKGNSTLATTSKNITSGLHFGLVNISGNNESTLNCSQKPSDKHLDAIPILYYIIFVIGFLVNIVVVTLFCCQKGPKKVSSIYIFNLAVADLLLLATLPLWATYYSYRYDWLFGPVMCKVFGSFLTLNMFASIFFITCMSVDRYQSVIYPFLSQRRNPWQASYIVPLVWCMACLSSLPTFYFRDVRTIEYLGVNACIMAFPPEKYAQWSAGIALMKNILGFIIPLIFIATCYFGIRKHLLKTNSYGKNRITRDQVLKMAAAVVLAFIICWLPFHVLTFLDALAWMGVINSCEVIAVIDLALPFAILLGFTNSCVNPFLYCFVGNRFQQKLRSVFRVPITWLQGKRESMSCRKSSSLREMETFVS
It is filed as binding. Conditions: HEK-293 cell membranes.

Series [1] can be described thus: Stability in human liver microsomes. Particulars: half-life. The format is in vitro ADME. A digest of the protocol:
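Pooled liver microsomes (human mixed gender; male Sprague-Dawley rat; male CD-1 mouse) at final 0.1 mg/mL protein, compound 0.1 μM, 100 mM potassium phosphate pH 7.4, NADPH-initiated, sampled 0–60 min. Parent remaining by HPLC-MS/MS vs time zero; half-life from log-linear slope assuming first-order kinetics, plus Clint.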
(In general: Liver microsomes are vesicles of endoplasmic reticulum, rich in cytochrome P450 enzymes.)

Series [2] can be described thus: Stability in rat liver microsomes. It is filed as in vitro ADME. Conditions: half-life. The protocol: Stability in liver microsomes. Human, mouse and rat liver microsomes were used to assess the metabolic stability for the compounds. Metabolic stability was determined in 0.5 mg/mL human, mouse or rat liver microsomes at a compound concentration of 1 μM in 100 mM potassium phosphate buffer (pH 7.4) in a total incubation volume of 500 μL by Eurofins. The assay matrix was: human liver microsomes: mixed gender and pool of 50, rat liver microsomes: male, Sprague-Dawley, pool of 100 or more and mouse liver microsomes: male,CD-1, pool of 250 or more. Final microsomal protein concentration: 0.1mg/mL. The test concentration was 0.1 μM with 0.01% DMSO, 0.25% acetonitrile and 0.25% methanol by default. […] The reaction was initiated by adding NADPH-generating system and was incubated for 0, 15, 30, 45, and 60 min. The reaction was stopped by transferring the incubation mixture to acetonitrile/methanol. Samples were then mixed and centrifuged. Four reference compounds were tested in each assay. Propranolol and imipramine are relatively stable, whereas verapamil and terfenadine are readily metabolized inhuman liver microsomes. Samples were analyzed by HPLC-MS/MS using selected reaction monitoring. The HPLC system consisted of a binary LC pump with autosampler, a C-18 column, and a gradient. Peak areas corresponding to the test compound were recorded. The compound remaining was calculated by comparing the peak area at each time point to time zero. The half-life was calculated from the slope of the initial linear range of the logarithmic curve of compound remaining (%) vs. time, assuming first order kinetics. In addition, the intrinsic clearance (Clint) was calculated.^19,20

Series [3] in a line: Kinetic solubility in PBS pH 7.4. The format is physicochemical. Conditions: Dulbecco's PBS buffer, aqueous buffer, kinetic from dmso stock; PBS pH 7.4, 24 h room temperature, 2% DMSO. The procedure:
Kinetic solubility. Dulbecco's PBS buffer was used (NaCl 137 mM, KCl 2.7 mM, Na2HPO4 8.1 mM, KH2PO4 1.5 mM with pH 7.4). The test compound is prepared at 200 μM in the PBS buffer from a 10 mM DMSO stock solution. The final DMSO concentration is 2%. The buffer samples were mixed thoroughly followed by incubation at room temperature for 24 h. At the end of the incubation, the buffer samples were centrifuged and supernatants were then injected for the HPLC analysis. A calibration standard of the test compound was prepared at 200 μM in methanol/water (3/2, v/v) from a 10 mM DMSO stock solution on the day of HPLC analysis. The analysis was conducted by HPLC-UV/VIS with photodiode array detection, with monitoring at 205, 230, 260, and 300 nm wavelengths. The HPLC system consisted of a C18 column using a gradient of A and B (A=12 mM ammonium formate, 6 mM formic acid in water, pH 4.0, B=6 mM ammonium formate, 3 mM formic acid acetonitrile/water (9/1, v/v)). Reference compounds used were metoprolol, rifampicin, ketoconazole, phenytoin, haloperidol, simvastatin, diethylstilbestrol, and tamoxifen, ranking from fully soluble (200 μM) to poorly soluble (<1μM). […] The range of the assay was approximately 0.5 μM to 200 μM. The chromatographic purity (%) was determined as the peak area of the principal peak relative to the total integrated peak areas in the HPLC chromatogram of the calibration standard.

The target of a further series is T3, CYP1A (Homo sapiens, UniProt P05177).
T3 sequence (P05177 1-516): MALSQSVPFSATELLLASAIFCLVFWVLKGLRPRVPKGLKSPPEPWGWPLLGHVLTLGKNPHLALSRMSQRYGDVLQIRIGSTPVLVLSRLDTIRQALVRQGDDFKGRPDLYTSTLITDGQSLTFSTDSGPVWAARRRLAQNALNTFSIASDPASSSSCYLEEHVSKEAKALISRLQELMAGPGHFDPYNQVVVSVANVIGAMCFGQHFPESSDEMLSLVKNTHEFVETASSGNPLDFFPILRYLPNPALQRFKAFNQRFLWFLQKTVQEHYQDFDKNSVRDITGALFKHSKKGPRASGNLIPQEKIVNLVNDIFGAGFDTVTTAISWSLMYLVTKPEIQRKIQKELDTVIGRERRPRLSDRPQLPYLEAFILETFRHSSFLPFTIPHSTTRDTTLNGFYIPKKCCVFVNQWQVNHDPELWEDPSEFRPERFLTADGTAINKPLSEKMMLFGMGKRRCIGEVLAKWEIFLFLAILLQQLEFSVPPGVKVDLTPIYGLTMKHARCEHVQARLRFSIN
The series can be described thus: CYP450 inhibition assay, pooled human liver microsomes, phenacetin substrate. Conditions: for CYP 450 Inhibition CYP1A: at 10 μM; for inhibition at 10 min, 10 µM: both, human, pooled human liver microsomes, pH 7.4, probe phenacetin.

A further series has as its target CYP2C9 (Homo sapiens, UniProt P11712). The series can be described thus: CYP450 inhibition assay, pooled human liver microsomes, diclofenac substrate. Conditions: for CYP 450 Inhibition CYP2C9: at 10 μM; for inhibition at 10 min, 10 µM: both, human, pooled human liver microsomes, pH 7.4, probe diclofenac.
The target of a further series is CYP2C19 (Homo sapiens, UniProt P33261). The series can be described thus: CYP450 inhibition assay, pooled human liver microsomes, omeprazole substrate. Conditions: for CYP 450 Inhibition CYP2C19: at 10 μM; for inhibition at 10 min, 10 µM: both, human, pooled human liver microsomes, pH 7.4, probe omeprazole.

In brackets after ≈: the same amount, converted by molar mass.

As a reminder, the Ki is the equilibrium dissociation constant of an inhibitor or competing ligand from its target. What is called solubility (kinetic) is solubility judged after dilution from a stock solution rather than from solid. As usually defined, the inhibition is the percentage by which the read-out fell short of the control. A higher inhibition goes with a response far below the control.

Sequence of CYP2C19 (P33261 whole entry): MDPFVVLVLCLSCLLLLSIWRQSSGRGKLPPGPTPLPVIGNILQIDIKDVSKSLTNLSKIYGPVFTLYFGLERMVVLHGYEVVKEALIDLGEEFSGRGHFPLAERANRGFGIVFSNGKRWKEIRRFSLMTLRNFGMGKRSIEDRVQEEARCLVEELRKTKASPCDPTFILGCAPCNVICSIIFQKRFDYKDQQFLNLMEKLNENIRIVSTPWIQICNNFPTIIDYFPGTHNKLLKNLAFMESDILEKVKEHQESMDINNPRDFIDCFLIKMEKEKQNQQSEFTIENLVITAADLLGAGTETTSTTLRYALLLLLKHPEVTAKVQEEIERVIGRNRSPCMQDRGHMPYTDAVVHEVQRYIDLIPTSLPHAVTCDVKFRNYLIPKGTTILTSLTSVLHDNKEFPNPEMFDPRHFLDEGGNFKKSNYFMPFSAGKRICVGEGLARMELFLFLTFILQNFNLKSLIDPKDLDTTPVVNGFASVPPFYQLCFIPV
Sequence of CYP2C9 (P11712 whole entry): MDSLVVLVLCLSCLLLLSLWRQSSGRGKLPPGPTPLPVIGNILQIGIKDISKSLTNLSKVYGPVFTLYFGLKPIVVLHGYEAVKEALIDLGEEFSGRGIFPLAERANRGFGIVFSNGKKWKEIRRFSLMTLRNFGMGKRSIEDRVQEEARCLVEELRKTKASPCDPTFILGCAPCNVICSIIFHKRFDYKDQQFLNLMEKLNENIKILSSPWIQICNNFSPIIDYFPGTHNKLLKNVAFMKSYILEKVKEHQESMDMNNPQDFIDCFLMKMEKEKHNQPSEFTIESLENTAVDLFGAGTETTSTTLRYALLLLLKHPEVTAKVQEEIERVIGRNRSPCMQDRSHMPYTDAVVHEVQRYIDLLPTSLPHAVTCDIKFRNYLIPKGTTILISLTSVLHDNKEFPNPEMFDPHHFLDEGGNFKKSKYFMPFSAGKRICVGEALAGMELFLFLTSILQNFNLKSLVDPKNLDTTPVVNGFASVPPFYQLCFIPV

Turning to `CCCCOC(=O)NS(=O)(=O)c1sc(CC(C)C)nc1-c1ccc(Cn2ccnc2C(C)(C)C)cc1` [Example 4, Butyl ((4-(4-((2-(tert-butyl)-1H-imidazol-1-yl)methyl)phenyl)-2-isobutylthiazol-5-yl)sulfonyl) carbamate], the Ki at human AT1R was around 1000 nM; on human AT2R, 18 nM. Further, the “Stability in liver microsomes HLM” value in series [1] was determined as 45 min. Besides, in series [2], the “Stability in liver microsomes RLM” value is given as 12 min. The same compound gave a kinetic solubility at 24 h in series [3] of 180 µM (≈ 95.9 µg/mL). On CYP1A, the “CYP 450 Inhibition CYP1A” value is on record as −7.3%. For the same compound, the “CYP 450 Inhibition CYP2C9” value on CYP2C9 amounted to 68%. The “CYP 450 Inhibition CYP2C19” value at CYP2C19 was 66%.

Consider `COC(=O)NS(=O)(=O)c1sc(CC(C)C)nc1-c1ccc(Cn2ccnc2C(C)(C)C)cc1` [Example 3, Methyl ((4-(4-((2-(tert-butyl)-1H-imidazol-1-yl)methyl)phenyl)-2-isobutylthiazol-5-yl)sulfonyl) carbamate], for which the inhibitory constant (Ki) at human AT1R is around 1000 nM; at human AT2R it was 29 nM. Also, the “Stability in liver microsomes HLM” value in series [1] is above 60 min. For the same compound, the “Stability in liver microsomes RLM” value in series [2] is above 60 min. Moreover, the kinetic solubility at 24 h in series [3] worked out at 195 µM (≈ 95.7 µg/mL). Besides, the “CYP 450 Inhibition CYP1A” value at CYP1A was 8.4%. Also, the “CYP 450 Inhibition CYP2C9” value at CYP2C9 turned out to be 23%. At CYP2C19, the “CYP 450 Inhibition CYP2C19” value came to 38%.

Turning to `COC(=O)[N-]S(=O)(=O)c1ccc(CC(C)C)cc1-c1ccc(Cn2ccnc2C(C)(C)O)cc1.[K+]` [Example 8B, Potassium ((4′-((2-(2-hydroxypropan-2-yl)-1H-imidazol-1-yl)methyl)-5-isobutyl-[1,1′-biphenyl]-2-yl)sulfonyl)(methoxycarbonyl)amide], the inhibitory constant (Ki) on human AT1R was around 1000 nM; at human AT2R, 3.2 nM. In series [1], the “Stability in liver microsomes HLM” value is on record as above 60 min. Further, in series [2], the “Stability in liver microsomes RLM” value was determined as 41 min. This compound also gave a solubility (kinetic) at 24 h in series [3] above 200 µM. In addition, the results for the inhibition at 10 min, 10 µM against CYP1A, against CYP2C9 and against CYP2C19 were 5.7%, 92% and 45%, respectively.

Take `COC(=O)NS(=O)(=O)c1ccc(CC(C)C)cc1-c1ccc(Cn2ccnc2C(C)(C)C)cc1` [Example 1A, Methyl ((4′-((2-(tert-butyl)-1H-imidazol-1-yl)methyl)-5-isobutyl-[1,1′-biphenyl]-2-yl)sulfonyl)carbamate]: the Ki is around 1000 nM at human AT1R and 1.1 nM on human AT2R. Besides, in series [1], the “Stability in liver microsomes HLM” value is recorded as above 60 min. Besides, the “Stability in liver microsomes RLM” value in series [2] is above 60 min. Further, the solubility (kinetic) at 24 h in series [3] is 140 µM (≈ 67.7 µg/mL). Further, the results for the inhibition at 10 min, 10 µM on CYP1A, against CYP2C9 and against CYP2C19 were 11%, 37% and 38%, respectively.

For the compound `CCCCOC(=O)[N-]S(=O)(=O)c1sc(CC(C)C)cc1-c1ccc(Cn2ccnc2C(C)(C)C)cc1.[K+]` [Example 11B, Potassium (butoxycarbonyl)((3-(4-((2-(tert-butyl)-1H-imidazol-1-yl)methyl)phenyl)-5-isobutylthiophen-2-yl)sulfonyl)amide], the figures for the inhibitory constant (Ki) at human AT1R and on human AT2R were around 1000 nM and 6.6 nM, respectively. Further, the “Stability in liver microsomes HLM” value in series [1] is reported as 11 min. The “Stability in liver microsomes RLM” value in series [2] is 18 min. The compound further returned a kinetic solubility at 24 h in series [3] above 200 µM. The inhibition at 10 min, 10 µM against CYP1A stood at 8.4%; on CYP2C9, 88%; against CYP2C19, 66%.

For the origin of these results see US20230159467A1, “NOVEL COMPOUNDS USEFUL IN THE TREATMENT AND/OR PREVENTION OF A DISEASE, DISORDER OR CONDITION ASSOCIATED WITH ANGIOTENSIN II” (Vicore Pharma AB, priority 2020, published 2023).
